Legend:
[1] = Drug uptake in rat liver at 6 mg/kg, po after 24 hrs; assay type: ADME, organism-based; settings: read-out: Drug uptake
[2] = AUC in rat at 6 mg/kg, po; assay type: ADME, organism-based; settings: in vivo
[3] = Cmax in rat at 6 mg/kg, po; assay type: ADME, organism-based; design: dose 6 mg/kg, route oral; settings: in vivo
[4] = (§1) Oral bioavailability in rat at 6 mg/kg; assay type: ADME, organism-based; settings: in vivo
[5] = Plasma concentration in rat at 6 mg/kg, po after 24 hrs; assay type: ADME, organism-based
[6] = Cmax in rat at 2 mg/kg, iv; assay type: ADME, organism-based; design: dose 2 mg/kg, route intravenous; settings: in vivo
Canis familiaris [7] = experiment: AUC in dog at 3 mg/kg, po; assay type: ADME, organism-based, Canis lupus familiaris; settings: in vivo
[8] = AUC in cynomolgus monkey at 3 mg/kg, po; assay type: ADME, organism-based, Macaca fascicularis; settings: in vivo
[9] = Volume of distribution at steady state in dog at 1 mg/kg, iv or 3 mg/kg, po; assay type: ADME, organism-based, Canis lupus familiaris; settings: in vivo, read-out: Vdss
Canis familiaris [10] = experiment: Oral bioavailability in dog at 3 mg/kg; assay type: ADME, organism-based, Canis lupus familiaris; settings: in vivo
[11] = Volume of distribution at steady state in cynomolgus monkey at 1 mg/kg, iv or 3 mg/kg, po; assay type: ADME, organism-based, Macaca fascicularis; settings: in vivo, read-out: Vdss
[12] = Oral bioavailability in cynomolgus monkey at 3 mg/kg; assay type: ADME, organism-based, Macaca fascicularis; settings: in vivo
[13] = Volume of distribution at steady state in rat at 2 mg/kg, iv or 6 mg/kg, po; assay type: ADME, organism-based; settings: in vivo, read-out: Vdss
[14] = Drug uptake in rat liver at 6 mg/kg, po after 48 hrs; assay type: ADME, organism-based; settings: read-out: Drug uptake
Rattus norvegicus = experiment: as §1; assay type: ADME, organism-based; settings: in vivo

CCNc1nc2oc(-c3ccc(F)cc3)c(C(=O)NC)c2cc1-c1cccc(C(=O)NC(C)(C)C)c1
concentration at 24 h [1]: 1600 nM | AUC [2]: 18 µM·h | Cmax [3]: 600 nM | bioavailability [4]: 64% | concentration at 24 h [5]: 560 nM | Cmax [6]: 1700 nM

CNC(=O)c1c(-c2ccc(F)cc2)oc2nc(CCC(F)(F)F)c(-c3cccc(C(=O)NC(C)(C)c4ncon4)c3)cc12
AUC [2]: 0.15 to 13 µM·h | Cmax [3]: 1100 nM | AUC (Canis familiaris [7]): 25 µM·h | AUC [8]: 8.3 µM·h | bioavailability [4]: 58% | Vd [9]: 3.3 L/kg | F (Canis familiaris [10]): 85% | concentration at 24 h [5]: 150 nM | Vd [11]: 2.8 L/kg | Cmax [6]: 1700 nM | bioavailability [12]: 61% | Vd [13]: 5.6 L/kg

CNC(=O)c1c(-c2ccc(F)cc2)oc2nc(CCC(F)(F)F)c(-c3cccc(C(=O)NC45CC(C4)C5)c3)cc12
concentration at 24 h [1]: 900 nM | AUC [2]: 10 µM·h | Cmax [3]: 900 nM | bioavailability [4]: 44% | concentration at 24 h [5]: 160 nM | Cmax [6]: 3200 nM | concentration at 48 h [14]: 820 nM

CNC(=O)c1c(-c2ccc(F)cc2)oc2nc(NCC(F)(F)F)c(-c3cccc(C(=O)NC(C)(C)c4ncon4)c3)cc12
Cmax [3]: 600 nM | F (Rattus norvegicus): 31% | concentration at 24 h [5]: 39 nM | Cmax [6]: 2500 nM

Reference: ChEMBL document CHEMBL4251547, “The discovery of a pan-genotypic, primer grip inhibitor of HCV NS5B polymerase” (Medchemcomm, 2017)
